From US12636292B2, “Method and composition for reversing and/or inhibiting atherosclerosis” (ARJIL BIOTECH HOLDING COMPANY LIMITED, priority 2019, dated 2026)

Tests used:
[1] = Body weight in hypercholesterolemic rabbit model; format: in vivo; conditions: rabbits on chow with 0.5% cholesterol plus 1% extract, 10 mg/kg pure compound or 10 mg/kg lovastatin; during the intervention
Protocol: (§1) 2 to 3 kg male, New Zealand White rabbits were individually caged and housed in temperature and humidity-controlled rooms. Light-dark cycles were 12 h each. After several days of acclimation, the animals were sequentially assigned to six feeding groups: standard rabbit chow (ND), standard rabbit chow containing 0.5% cholesterol (HF), standard rabbit chow containing both 0.5% cholesterol and 10 mg/kg Lovastatin (L), standard rabbit chow containing both 0.5% cholesterol and 1% ARH003 (ARH003), standard rabbit chow containing both 0.5% cholesterol and 1% ARH004 (ARH004), standard rabbit chow containing both 0.5% cholesterol and 10 mg/kg Pure compound (P).
(§2) Except standard rabbit chow, others groups were given standard rabbit chow containing 0.5% cholesterol for 4 weeks. The daily feeding amount for each rabbit was 50 g/kg body weight per day.
(§3) Diets were administered for 8 weeks, after the animals had adjusted to their new environment. At the beginning and end of the 12 weeks study, the rabbits were anesthetized by an intramuscular injection of Zoletil 50 (1 mL/kg) (Virbac Ltd., France), and blood samples were harvested. Finally, the aortas (from aortic arch to the bifurcation of the iliac arteries) and whole livers were collected from the rabbits after they were sacrificed for further histopathological analyses.

[2] = Blood chemistry analysis (serum triglyceride, total cholesterol) in hypercholesterolemic rabbits; format: in vivo, rabbit; conditions: week 12; rabbits on 0.5% cholesterol chow plus 1% extract, 10 mg/kg pure compound or 10 mg/kg lovastatin; vs high fat diet group
Protocol: as §1, §2, §3
The animals were fasted overnight before blood drawing. […]

VCAM-1 = assay: Immunofluorescence staining of VCAM-1 in vascular endothelial cells; format: cell-based, mouse; conditions: 20 μg/mL with 0.75 mM palm acid oil; p<0.01
RAW264.7 macrophages = assay: Cellular migration assay (transwell); format: cell-based; conditions: 48 h
Protocol: RAW264.7 macrophage was purchased from the Hsin-Chu Food Industry Development Institute Cell Bank (FIRDI, Cat no: BCRC-60001). The cell culture medium contains high-glucose DMEM (Gibco BRL, Grand Island, NY, USA), 10% FBS, 1.5 g/L sodium bicarbonate, 0.11 g/L sodium pyruvate, 4 mM L-glutamine, 100 U/mL penicillin, and 100 μg/mL streptomycin. These cells were maintained in a humidified incubator at 37° C. and 5% CO2. After collecting the cells with a spatula, for each 24-well culture plate, all cell densities were adjusted to 1×10^5 cells per well for migration assays.
We used a cellular migration assay to examine the cellular migration ability of RAW 264.7 macrophages toward vascular endothelial cells with high-fat damage. The cellular migration assay has been clearly described in a previous report (Hwang et al., 2021). Transwells (Corning, New York, NY, USA) with 8.0 μm pore size were used in this experiment for cell migration assays. In total, 1×10^5 RAW264.7 macrophage, labeled with the red fluorescent dye of 1,1′-Dioctadecyl-6,6′-Di(4-Sulfophenyl) (SP-Di1C18(3)), was added to the upper layer of transwell after 48 h. […] Images were taken with a fluorescence microscope (Leica Microsystems, Wetzlar, Germany), and analysis was performed using Leica Application Suite software (LAS) V4.12 s (Leica Microsystems, Wetzlar, Germany) after 48 h of culture.

[3] = test system: SVEC4-10 vascular endothelial cells; assay: MTT cell viability assay; format: cell-based; conditions: for cell viability of vascular endothelial cells: sham = 100%
Protocol: (§4) Vascular endothelial cells (SVEC4-10) were purchased from the Cell Bank of Hsin-Chu Food Industry Development Institute (FIRDI, Cat no: BCRC-60220). SVEC4-10 cells were cultured in high-glucose DMEM (Dulbecco's Modified Eagle Medium) (Gibco BRL, Grand Island, NY, USA) and supplemented with 10% Fetal Bovine Serum (FBS) (HyClone, Logan, UT, USA), 1.5 g/L sodium bicarbonate, 0.11 g/L sodium pyruvate, 4 mM L-glutamine, 100 U/mL penicillin, and 100 μg/mL streptomycin (Gibco BRL, Grand Island, NY, USA).
(§5) These cells were grown in a culture medium and maintained in a humidified incubator at 37° C. and 5% CO2. Vascular endothelial cells were digested with 0.25% trypsin (Gibco BRL, Grand Island, NY, USA) for approximately 1 min until most cells detached. All cell densities were adjusted to 1×10^5 cells per well for each 24-well culture plate. After vascular endothelial cells were cultured for 24 h, in the hyperlipidemia group, 0.75 mM palm acid oil (CAS 57-10-3-800508; Sigma-Aldrich Co., St. Louis, MO, USA) (Oh et al., 2018) was added, and 10, 20, and 50 μg/mL of antcin K in each experiment was individually added.
We used a 3-(4,5-Dimethylthiazol-2-yl)-2,5-diphenyltetrazolium bromide (MTT) assay to examine the cell viability of antcin K in this study. A total of 1×10^5 cells/mL SVEC4-10 cells were added to a 24-well plate, and 0.5 mM palm acid oil (Sigma-Aldrich Co., St. Louis, MO, USA) was partially added, and 10, 20, and 50 μg/mL of test samples were added to SVEC4-10 cells, followed by culturing within 24 h. After adding 0.5 mg/mL of MTT solution (M5655, Sigma-Aldrich Co., St. Louis, MO, USA) and culturing for 2 h, the supernatant was removed, and 100 μL/well of DMSO organic solvent was added, followed by a 5 min shaking and then absorbance measurement at 570 nm.

IL-1β [4] = assay: ELISA of IL-1β in RAW264.7 macrophages; format: cell-based, mouse; conditions: 20 μg/mL with 0.75 mM palm acid oil (272.3 without)
TNF-α [5] = assay: ELISA of TNF-α in palm acid oil-treated vascular endothelial cells; format: cell-based, mouse
Protocol: as §4, §5
(§6) We analyzed the content of inflammatory cytokines by ELISA. The supernatant of SVEC4-10 cells with palm acid oil hyperlipidemia treatment was collected after 24 h of culture and added to a 96-well micro-well plate (Thermo Scientific Nunc®, Nunc AS, Copenhagen, Denmark). An amount of 100 μL/well of carbonate buffer containing antibodies of 32 ng/mL purified rat anti-mouse TNF-α (88-7324; Invitrogen, Carlsbad, CA, USA) or 32 ng/mL purified rat anti-mouse IL-1_(88-7013; Invitrogen, Carlsbad, CA, USA) was added to each well and kept at 4° C. overnight. After that, we washed three times with 0.05% phosphate-buffered saline with Tween 20 (PBST) buffer to remove unbound monoclonal antibodies. Then, we added 200 μL/well of blocking solution to reduce nonspecific binding. […] The reaction was terminated with 2% H2SO4, and the absorbance at 450-570 nm was measured.

IL-1β [6] = assay: ELISA of IL-1β in palm acid oil-treated vascular endothelial cells; format: cell-based, mouse
Protocol: as §4, §5, §6

[7] = test system: vascular endothelial cells; assay: Cellular lipid deposition assay (oil red O staining); format: cell-based; conditions: different concentrations of antcin K
Protocol: We used oil red O staining which was clearly described in a previous report (Luo et al., 2021) to examine cellular lipid deposition. RAW264.7 macrophages were fixed with 2% paraformaldehyde for 10-15 min at room temperature, washed three times with phosphate-buffered saline (PBS) and twice with ddH2O, and stained with 5% oil red O dye for 15 min at room temperature, then the supernatant was discarded. Vascular endothelial cells and RAW264.7 macrophages were infiltrated with 60% isopropanol, washed twice with ddH2O, and photographed with an optical microscope (Olympus BH2 system light microscope, Olympus Corporation, Tokyo, Japan).

CD36 = assay: Immunofluorescence staining of CD36 in vascular endothelial cells; format: cell-based, mouse; conditions: 20 μg/mL with 0.75 mM palm acid oil
Protocol: as §4
(§7) These cells were grown in a culture medium and maintained in a humidified incubator at 37° C. and 5% CO2. […]
(§8) We used immunofluorescence staining to examine expressions of KLF4 and CD36. […] Note that this step needs to be protected from light at the beginning Nuclei were stained with 1 μg/mL diamino-2-phenilindole (DAPI) (D3286, Sigma-Aldrich Co., St. Louis, MO, USA) for 10 min at room temperature after washing three times with PBS and mounted with a fluorescent protectant-containing adhesive to reduce fluorescence decay. Fluorescent images were obtained using a Leica DM IRB inverted fluorescence microscope (Leica Microsystems, Wetzlar, Germany), and analysis was performed using Leica Application Suite software (LAS) V4.12 s (Leica Microsystems, Wetzlar, Germany). The Rhodamine fluorescence-labeled cytoskeleton was visualized at 565 nm by exciting cells at 540 nm. […]

KLF4 = assay: Immunofluorescence staining of KLF4 in vascular endothelial cells; format: cell-based, mouse; conditions: 20 μg/mL with 0.75 mM palm acid oil; p<0.01
Protocol: as §4, §7, §8

TNF-α [8] = assay: ELISA of TNF-α in RAW264.7 macrophages; format: cell-based, mouse; conditions: 20 μg/mL with 0.75 mM palm acid oil (856.9 without)
[9] = DPPH free radical scavenging assay; format: biochemical
Protocol: The antioxidant capacity of antcin K was examined by 1,1-diphenyl-2-trinitrophenylhydrazyl (DPPH) assay in this study. We formulated DPPH (D9132, Sigma-Aldrich Co., St. Louis, MO, USA) at a concentration of 1.5 mM per 1 mL and added 9 mL of methanol (322415, Sigma-Aldrich Co., St. Louis, MO, USA) to the mixed solution. The 100 μL of DPPH and 100 μL of 10, 20, and 50 μg/mL of test samples were taken, shaken, and mixed evenly, then placed at room temperature for 30 min in the dark. After that, the absorbance was measured at 517 nm using an ultraviolet/visible light spectrometer (Microplate Spectrophotometer, uQuant, Biotek Instruments, Inc., Winooski, VT, USA).
Different concentrations of test samples were prepared and compared with the standard L-Ascorbic acid (L-AA) (A5960, Sigma-Aldrich Co., St. Louis, MO, USA). Based on the reduction percentage of the absorbance value observed in the control group, the antioxidant capacity of each test sample to scavenge DPPH free radicals can be judged. After that, the test sample with the most robust ability to scavenge DPPH free radicals was selected and repeated three times. The formula is as follows: DPPH free radical scavenging rate (%)=(1−(absorption value of experimental group/absorption value of control group))×100.

CC[C@H](C)C(=O)O[C@H]1C[C@@H](C)C=C2C=C[C@H](C)[C@H](CC[C@@H]3C[C@@H](O)CC(=O)O3)[C@H]21 [lovastatin]
body weight gains [1]: did not affect
serum total cholesterol levels [2]: higher

C=C(CC[C@@H](C)[C@H]1CC[C@H]2C3=C(C(=O)C[C@]12C)[C@@]1(C)CC[C@H](O)[C@](C)(O)C1CC3O)C(C)C(=O)O (stereo partly shown) [antcin K, 3a,4b,7b-tri-hydroxy4a-methylergosta-8,24(28)-dien-11-on-26-oic acid]
expression of VCAM-1 in palm acid oil-treated vascular endothelial cells (VCAM-1): significantly decreased
migration of RAW264.7 macrophages to palm acid oil-treated vascular endothelial cells (RAW264.7 macrophages): enhanced
cell viability of vascular endothelial cells ([3]; 10 μg/mL with 0.75 mM palm acid oil): 71.5%
cell viability of vascular endothelial cells ([3]; 20 μg/mL with 0.75 mM palm acid oil): 84.6%
cell viability of vascular endothelial cells ([3]; 50 μg/mL with 0.75 mM palm acid oil): 109.2%
change of cell viability of vascular endothelial cells ([3]; 10, 20 and 50 μg/mL without palm acid oil damage): not very obvious
IC50 ([3]; Mus musculus, SVEC4-10, antcin K treatment 0-50 μg/mL, MTT): > 50 µg/mL
expression of IL-1β of RAW264.7 macrophage cells (IL-1β [4]): 189.2 pg/mL
expression of TNF-α of vascular endothelial cells (TNF-α [5]; 10 μg/mL with 0.75 mM palm acid oil (285.5 without)): 178.8 pg/mL
expression of TNF-α of vascular endothelial cells (TNF-α [5]; 20 μg/mL with 0.75 mM palm acid oil (285.5 without)): 180.3 pg/mL
expression of TNF-α of vascular endothelial cells (TNF-α [5]; 50 μg/mL with 0.75 mM palm acid oil (285.5 without)): 181.0 pg/mL
expression of IL-1β of vascular endothelial cells (IL-1β [6]; 10 μg/mL with 0.75 mM palm acid oil (86.6 without)): 70.2 pg/mL
expression of IL-1β of vascular endothelial cells (IL-1β [6]; 20 μg/mL with 0.75 mM palm acid oil (86.6 without)): 69.3 pg/mL
expression of IL-1β of vascular endothelial cells (IL-1β [6]; 50 μg/mL with 0.75 mM palm acid oil (86.6 without)): 71.5 pg/mL
lipid deposition in palm acid oil-treated vascular endothelial cells [7]: decreased
expression of CD36 in palm oil-treated vascular endothelial cells (CD36): decreased
expression of KLF4 in palm acid oil-treated vascular endothelial cells (KLF4): significantly increased
expression of TNF-α of RAW264.7 macrophages (TNF-α [8]): 690.7 pg/mL
free radicals scavenging efficiency (DPPH) ([9]; 20 μg/mL): 96.82%
free radicals scavenging efficiency (DPPH) ([9]; 50 μg/mL): 98.81%
